Data published in ChEMBL document CHEMBL1149262, “Monoamine transporter binding, locomotor activity, and drug discrimination properties of 3-(4-substituted-phenyl)tropane-2-carboxylic acid methyl ester isomers” (J Med Chem, 2004).
Calls of active or inactive are those of the source. The rule behind the calls is not given here.

Assays:
Rattus norvegicus [1] = assay: Drug discrimination effect in CD Albino rat assessed as percent of rat choosing cocaine lever at 17 mg/kg, ip; format: functional; settings: route intraperitoneal
Mus musculus [2] = assay: Locomotor activity in CD1 mouse assessed as stimulation at 1 mg/kg, ip after 4 hrs relative to control; format: functional; settings: route intraperitoneal
Mus musculus [3] = assay: Locomotor activity in CD1 mouse assessed as stimulation at 30 mg/kg, ip after 1 hr relative to control; format: functional; settings: route intraperitoneal
Rattus norvegicus [4] = assay: Drug discrimination effect in CD Albino rat assessed as percent of rat choosing cocaine lever at 3 mg/kg, ip; format: functional; settings: route intraperitoneal
Mus musculus [5] = assay: Locomotor activity in CD1 mouse assessed as stimulation at 10 mg/kg, ip after 2 hrs relative to control; format: functional; settings: route intraperitoneal
Mus musculus [6] = assay: Locomotor activity in CD1 mouse assessed as stimulation at 10 mg/kg, ip after 4 hrs relative to control; format: functional; settings: route intraperitoneal
Mus musculus [7] = assay: Locomotor activity in CD1 mouse assessed as stimulation at 30 mg/kg, ip after 3 hrs relative to control; format: functional; settings: route intraperitoneal
Mus musculus [8] = assay: Activity in CD1 mouse assessed as slight or intermittent stereotypy at 10 mg/kg, ip after 4 hrs; format: functional, organism-based; design: dose 10 mg/kg
Mus musculus [9] = assay: Locomotor activity in CD1 mouse assessed as stimulation at 3 mg/kg, ip after 1 hr relative to control; format: functional; settings: route intraperitoneal
Mus musculus [10] = assay: Locomotor activity in CD1 mouse assessed as stimulation at 10 mg/kg, ip after 1 hr relative to control; format: functional; settings: route intraperitoneal
Mus musculus [11] = assay: Activity in CD1 mouse assessed as stereotypy at 100 mg/kg, ip after 4 hrs; format: functional, organism-based; design: dose 100 mg/kg
Mus musculus [12] = assay: Locomotor activity in CD1 mouse assessed as stimulation at 30 mg/kg, ip after 2 hrs relative to control; format: functional; settings: route intraperitoneal
Mus musculus [13] = assay: Locomotor activity in CD1 mouse assessed as stimulation at 1 mg/kg, ip after 3 hrs relative to control; format: functional; settings: route intraperitoneal
Mus musculus [14] = assay: Locomotor activity in CD1 mouse assessed as stimulation at 3 mg/kg, ip after 4 hrs relative to control; format: functional; settings: route intraperitoneal
Mus musculus [15] = assay: Locomotor activity in CD1 mouse assessed as stimulation at 1 mg/kg, ip after 2 hrs relative to control; format: functional; settings: route intraperitoneal
Mus musculus [16] = assay: Activity in CD1 mouse assessed as tremor at 100 mg/kg, ip after 4 hrs; format: functional, organism-based; design: dose 100 mg/kg
[17] = target: Sodium-dependent noradrenaline transporter (Homo sapiens, UniProt P23975); assay: Displacement of [3H]nisoxetine from NET
Chain of Sodium-dependent noradrenaline transporter (P23975 whole entry): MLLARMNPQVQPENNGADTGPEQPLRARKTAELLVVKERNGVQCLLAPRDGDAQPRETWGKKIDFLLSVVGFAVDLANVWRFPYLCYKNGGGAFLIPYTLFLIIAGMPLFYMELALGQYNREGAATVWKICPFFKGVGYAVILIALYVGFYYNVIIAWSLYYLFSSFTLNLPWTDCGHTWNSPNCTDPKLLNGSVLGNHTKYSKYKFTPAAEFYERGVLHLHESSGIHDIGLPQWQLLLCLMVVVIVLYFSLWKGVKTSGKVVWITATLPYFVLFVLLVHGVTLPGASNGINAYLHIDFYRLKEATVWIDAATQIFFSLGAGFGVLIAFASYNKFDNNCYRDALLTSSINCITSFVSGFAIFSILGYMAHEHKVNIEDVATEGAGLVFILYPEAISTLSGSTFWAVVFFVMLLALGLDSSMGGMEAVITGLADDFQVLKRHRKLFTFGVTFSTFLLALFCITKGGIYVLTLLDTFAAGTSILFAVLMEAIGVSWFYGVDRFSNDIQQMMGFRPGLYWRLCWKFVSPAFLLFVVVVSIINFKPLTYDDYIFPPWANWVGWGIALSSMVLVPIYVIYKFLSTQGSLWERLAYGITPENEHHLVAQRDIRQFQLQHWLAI

Mus musculus [18] = assay: Locomotor activity in CD1 mouse assessed as stimulation at 30 mg/kg, ip after 4 hrs relative to control; format: functional; settings: route intraperitoneal
Mus musculus [19] = assay: Locomotor activity in CD1 mouse assessed as stimulation at 3 mg/kg, ip after 3 hrs relative to control; format: functional; settings: route intraperitoneal
Mus musculus [20] = assay: Locomotor activity in CD1 mouse assessed as stimulation at 3 mg/kg, ip after 2 hrs relative to control; format: functional; settings: route intraperitoneal
Rattus norvegicus [21] = assay: Drug discrimination effect in CD Albino rat assessed as percent of rat choosing cocaine lever at 5.6 mg/kg, ip; format: functional; settings: route intraperitoneal
Mus musculus [22] = assay: Activity in CD1 mouse assessed as circling at 100 mg/kg, ip after 4 hrs; format: functional, organism-based; design: dose 100 mg/kg
Rattus norvegicus [23] = assay: Cocaine discrimination in ip dosed CD Albino rat; format: functional
[24] = target: Sodium-dependent serotonin transporter (Homo sapiens, UniProt P31645)
Chain of Sodium-dependent serotonin transporter (P31645 whole entry): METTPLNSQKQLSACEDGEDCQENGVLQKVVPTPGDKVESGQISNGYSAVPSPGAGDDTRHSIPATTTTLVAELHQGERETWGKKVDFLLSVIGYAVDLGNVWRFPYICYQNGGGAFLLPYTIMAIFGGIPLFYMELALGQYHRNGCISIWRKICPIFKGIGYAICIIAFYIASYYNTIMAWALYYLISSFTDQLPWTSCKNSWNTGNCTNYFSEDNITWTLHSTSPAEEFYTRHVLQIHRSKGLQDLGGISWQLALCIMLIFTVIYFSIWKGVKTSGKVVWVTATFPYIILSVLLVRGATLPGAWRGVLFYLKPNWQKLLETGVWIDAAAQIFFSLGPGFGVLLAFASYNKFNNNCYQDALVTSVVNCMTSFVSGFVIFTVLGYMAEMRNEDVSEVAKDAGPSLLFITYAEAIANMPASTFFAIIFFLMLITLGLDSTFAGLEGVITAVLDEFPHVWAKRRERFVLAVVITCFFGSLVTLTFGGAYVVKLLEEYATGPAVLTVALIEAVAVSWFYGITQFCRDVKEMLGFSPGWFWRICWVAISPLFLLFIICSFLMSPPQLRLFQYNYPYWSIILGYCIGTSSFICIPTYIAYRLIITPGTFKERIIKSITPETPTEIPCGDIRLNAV
Description: Displacement of [3H]paroxetine from 5HTT

Mus musculus [25] = assay: Locomotor activity in ip dosed CD1 mouse in peak hour; format: functional
Mus musculus [26] = assay: Locomotor activity in CD1 mouse assessed as stimulation at 10 mg/kg, ip after 3 hrs relative to control; format: functional; settings: route intraperitoneal
Mus musculus [27] = assay: Activity in CD1 mouse assessed as convulsions at 100 mg/kg, ip after 4 hrs; format: functional, organism-based; design: dose 100 mg/kg
Mus musculus [28] = assay: Locomotor activity in CD1 mouse assessed as stimulation at 1 mg/kg, ip after 1 hr relative to control; format: functional; settings: route intraperitoneal
Mus musculus [29] = assay: Activity in CD1 mouse assessed as hypoactivity at 100 mg/kg, ip after 4 hrs; format: functional, organism-based; design: dose 100 mg/kg
Rattus norvegicus [30] = assay: Drug discrimination effect in CD Albino rat assessed as percent of rat choosing cocaine lever at 10 mg/kg, ip; format: functional; settings: route intraperitoneal
Mus musculus [31] = assay: Locomotor activity in CD1 mouse assessed as stimulation at 100 mg/kg, ip after 3 hrs relative to control; format: functional; settings: route intraperitoneal
Rattus norvegicus [32] = assay: Drug discrimination effect in CD Albino rat assessed as percent of rat choosing cocaine lever at 1.7 mg/kg, ip; format: functional; settings: route intraperitoneal
Mus musculus [33] = assay: Locomotor activity in CD1 mouse assessed as stimulation at 100 mg/kg, ip after 4 hrs relative to control; format: functional; settings: route intraperitoneal
Mus musculus [34] = assay: Locomotor activity in CD1 mouse assessed as stimulation at 100 mg/kg, ip after 2 hrs relative to control; format: functional; settings: route intraperitoneal
Mus musculus [35] = assay: Locomotor activity in ip dosed CD1 mouse after 1 hr relative to cocaine; format: functional
Rattus norvegicus [36] = assay: Drug discrimination effect in CD Albino rat assessed as percent of rat choosing cocaine lever at 1 mg/kg, ip; format: functional; settings: route intraperitoneal
Mus musculus [37] = assay: Activity in CD1 mouse assessed as slight or intermittent hyperactivity at 100 mg/kg, ip after 4 hrs; format: functional, organism-based; design: dose 100 mg/kg
[38] = target: Sodium-dependent dopamine transporter (Homo sapiens, UniProt Q01959); assay: Displacement of [3H]WIN-35428 from DAT
Chain of Sodium-dependent dopamine transporter (Q01959 whole entry): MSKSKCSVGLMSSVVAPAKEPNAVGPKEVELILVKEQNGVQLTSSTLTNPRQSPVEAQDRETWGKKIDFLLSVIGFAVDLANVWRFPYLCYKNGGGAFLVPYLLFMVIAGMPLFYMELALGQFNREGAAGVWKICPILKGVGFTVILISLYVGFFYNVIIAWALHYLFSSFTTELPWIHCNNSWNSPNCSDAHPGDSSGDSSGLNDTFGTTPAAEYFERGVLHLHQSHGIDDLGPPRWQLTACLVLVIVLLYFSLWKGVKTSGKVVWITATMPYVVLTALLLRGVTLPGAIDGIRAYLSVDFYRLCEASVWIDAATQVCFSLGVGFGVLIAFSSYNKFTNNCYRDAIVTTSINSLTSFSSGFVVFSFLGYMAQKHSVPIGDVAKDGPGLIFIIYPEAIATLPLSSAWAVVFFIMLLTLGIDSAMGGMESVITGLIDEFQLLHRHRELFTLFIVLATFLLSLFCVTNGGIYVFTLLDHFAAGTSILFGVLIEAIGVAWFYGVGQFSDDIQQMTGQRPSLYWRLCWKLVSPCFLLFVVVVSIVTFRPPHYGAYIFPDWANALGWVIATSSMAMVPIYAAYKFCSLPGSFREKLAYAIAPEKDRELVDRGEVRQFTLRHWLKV

Mus musculus [39] = assay: Locomotor activity in CD1 mouse assessed as stimulation at 100 mg/kg, ip after 1 hr relative to control; format: functional; settings: route intraperitoneal
Mus musculus [40] = assay: Activity in CD1 mouse assessed as hyperactivity at 10 mg/kg, ip after 4 hrs; format: functional, organism-based; design: dose 10 mg/kg
Mus musculus [41] = assay: Activity in CD1 mouse assessed as stimulation at 100 mg/kg, ip after 4 hrs; format: functional, organism-based; design: dose 100 mg/kg

Row | Compound | Activity (Mus musculus [3]) | Activity (Rattus norvegicus [4]) | Activity (Mus musculus [5]) | Activity (Mus musculus [6]) | Activity (Mus musculus [7]) | Activity (Mus musculus [9]) | Activity (Mus musculus [10]) | Activity (Mus musculus [11]) | Activity (Mus musculus [12]) | Activity (Mus musculus [14]) | IC50 [17] | Ki [17] | Activity (Mus musculus [18]) | Activity (Mus musculus [19]) | Activity (Mus musculus [20]) | Activity (Rattus norvegicus [21]) | ED50 (Rattus norvegicus [23]) | ED50 (Mus musculus [25]) | Activity (Mus musculus [26]) | Activity (Rattus norvegicus [30]) | further results
1 | COC(=O)[C@H]1C2CCC(C[C@@H]1c1ccc(F)cc1)N2C (some centres undefined) | 24% | 0% | 107% | 196% | 298% | 15% | 58% | Active | 207% | 19% | 7200 nM | 4340 nM | 127% | 120% | 58% | 33% | 8.01 mg/kg | 2.4 mg/kg | 260% | 57% | Activity (Rattus norvegicus [1]): 100%; Activity (Mus musculus [2]): 28%; Activity (Mus musculus [8]): Active; Activity (Mus musculus [13]): 52%; Activity (Mus musculus [15]): 5%; Activity (Mus musculus [16]): Active; Activity (Mus musculus [22]): Active; IC50 [24]: > 10000 nM; Activity (Mus musculus [27]): Active; Activity (Mus musculus [28]): -10%; Activity (Mus musculus [29]): Active
2 | COC(=O)[C@@H]1C2CCC(C[C@H]1c1ccc(I)cc1)N2C (some centres undefined) | 308% | 43% | 100% | 49% | 391% | 14% | 210% |  | 121% | -42% | 52.4 nM | 32 nM | 25% | 64% | -72% | 44% | 4.72 mg/kg | 7.7 mg/kg | 457% | 86% | Activity (Mus musculus [31]): 692%; Activity (Rattus norvegicus [32]): 14%; Activity (Mus musculus [33]): 124%; Activity (Mus musculus [34]): 168%; Ratio (Mus musculus [35]): 1; Activity (Rattus norvegicus [36]): 0%; Activity (Mus musculus [37]): Active; IC50 [24]: 64.9 nM; Ki [24]: 5.9 nM; IC50 [38]: 2.9 nM; Activity (Mus musculus [39]): 328%
3 | COC(=O)[C@@H]1C2CCC(C[C@H]1c1ccc(Cl)cc1)N2C (some centres undefined) | 868% | 67% | 322% | 11% | 1002% | 49% | 340% | Active | 1127% | 38% |  |  | 158% | 135% | 64% | 67% | 2.55 mg/kg | 9.1 mg/kg | 373% | 100% | Activity (Mus musculus [31]): 1065%; Activity (Rattus norvegicus [32]): 25%; Activity (Mus musculus [33]): 598%; Activity (Mus musculus [40]): Active; Activity (Mus musculus [34]): 217%; Activity (Mus musculus [41]): Active; Activity (Rattus norvegicus [36]): 25%; Activity (Mus musculus [22]): Active; IC50 [38]: 3.1 nM; Activity (Mus musculus [39]): 487%
